Experiment [1] has as its system Thioglycolate-elicited peritoneal macrophages. As to the kind of experiment: Macrophage response to E. coli infection: iNOS mRNA and NO production. It counts as cell-based, murine. The note with it: 18 h, pretreated with 1 μM ligand, real-time quantitative PCR.
Protocol: Thioglycolate-elicited peritoneal macrophages were infected in vitro with Escherichia coli. After 18 hours, expression of inducible nitric oxide synthase (iNOS) mRNA and nitric oxide (NO) production were assessed. […] Cells were then infected with E. coli (A, B) or treated with 100 ng/ml LPS(C, D, E) as indicated. After 18 h, NO production was determined using a colorimetric assay (A, D), or mRNA levels were determined using real-time quantitative PCR assays (B, C, E).
Thioglycolate-elicited peritoneal macrophages were cultured in RPMI containing 10% fetal bovine serum (FBS). […] For ligand treatments, cells were in cultured medium supplemented with 5% lipoprotein-deficient serum (LPDS) and ligands for 18 h before stimulation. […] NO production was determined spectrophotometrically (Castrillo, A. et al. 2000 Mol Cell Biol 20:1692-1698).
Total RNA was extracted using Trizol reagent (Life Technologies, Inc.). […] Real-time quantitative PCR (TaqMan) analysis was performed using an Applied Biosystems 7700 sequence detector.
For experiment [2], the system named is Thioglycolate-elicited murine peritoneal macrophages. In words: LPS-stimulated macrophages: NO production, iNOS and ABCA1 mRNA. It counts as cell-based. As to conditions: for iNOS mRNA: 100 ng/ml LPS, 18 h, pretreated with 1 μM ligand, real-time quantitative PCR. As to the method: To investigate the role of LXRs in host defense, the influence of LXR agonists on macrophage responses to bacterial pathogens was tested. Thioglycolate-elicited peritoneal macrophages were infected in vitro with Escherichia coli. After 18 hours, expression of inducible nitric oxide synthase (iNOS) mRNA and nitric oxide (NO) production were assessed. […] This repression occurs over the same concentration range needed to induce the established LXR target gene ATP-binding cassette transporter A1 (ABCA1). A, LXR agonist inhibits nitrite production in response to bacterial infection. […] Cells were then infected with E. coli (A, B) or treated with 100 ng/ml LPS(C, D, E) as indicated. After 18 h, NO production was determined using a colorimetric assay (A, D), or mRNA levels were determined using real-time quantitative PCR assays (B, C, E). […] The inhibitory effect of LXR agonists on iNOS expression was dose-dependent and occurred over the same range of concentration as that required to induce ATP-binding cassette transporter A1 (ABCA1) (FIGS. 1D and E).
The anti-inflammatory activity of LXR ligands can be separated from the induction of lipid metabolism genes such as ABCA1. Murine peritoneal macrophages were treated with LPS to induce iNOS gene expression (FIG. 8A) and were assayed for ABCA1 mRNA by real time qPCR (FIG. 8B). NOx production was measured by colorimetric assay. […] The identification of LXR agonists with only anti-inflammatory activity should greatly increase the usefulness of such compounds as therapeutic agents, because they lack the unwanted side effects on lipid metabolism such as elevation of triglyceride levels.
Cell culture and transfections. Thioglycolate-elicited peritoneal macrophages were cultured in RPMI containing 10% fetal bovine serum (FBS). RAW 264.7 cells were cultured in DMEM containing 10% FBS. For ligand treatments, cells were in cultured medium supplemented with 5% lipoprotein-deficient serum (LPDS) and ligands for 18 h before stimulation. Bacterial infection in vitro was performed as described (Chen, L. M. et al. 1996 Mol Microbiol 21:1101-1115). Transient transfections of RAW 264.7 cells were performed in triplicate in 48-well plates using Superfect reagent (Life Technologies). After transfection, cells were incubated in medium containing 10% LPDS and the indicated ligands for 18 h before stimulation with LPS for an additional 18 h. Luciferase activity was normalized to β-galactosidase activity. NO production was determined spectrophotometrically (Castrillo, A. et al. 2000 Mol Cell Biol 20:1692-1698).
RNA and protein analysis. Total RNA was extracted using Trizol reagent (Life Technologies, Inc.). Northern blot analysis was carried out as described using radiolabeled cDNA probes (Tontonoz, P. et al. 1998 Cell 93:241-252). Real-time quantitative PCR (TaqMan) analysis was performed using an Applied Biosystems 7700 sequence detector. Two-step real-time PCR was performed as described (Joseph, S. B. et al. 2002 J Biol Chem 277:11019-11025). The primers and probes used are as follows: […]

Experiment [3] shares this test system. As to the kind of experiment: Expression of NF-κB target genes in LPS-treated macrophages (northern blot, real-time quantitative PCR). The class given is cell-based. The method, then: LPS is an established inducer of the NF-κB signaling pathway in macrophages. Several genes inhibited by LXR ligands in the array studies above are established targets of NF-κB. To further investigate the role of LXRs in NF-κB-dependent gene expression, we analyzed expression of NF-κB target genes in peritoneal macrophages from wild-type mice. […] Expression of NF-κB target genes was determined by northern blot (A) or by real-time quantitative PCR assays (B). 36B4 was used as a control for RNA loading and integrity. […] RNA and protein analysis. Total RNA was extracted using Trizol reagent (Life Technologies, Inc.). Northern blot analysis was carried out as described using radiolabeled cDNA probes (Tontonoz, P. et al. 1998 Cell 93:241-252). Real-time quantitative PCR (TaqMan) analysis was performed using an Applied Biosystems 7700 sequence detector. Two-step real-time PCR was performed as described (Joseph, S. B. et al. 2002 J Biol Chem 277:11019-11025). The primers and probes used are as follows: […]

In the next experiment the test system is C57B1/6 mice. As to the kind of experiment: Murine model of irritant contact dermatitis (TPA-treated ear). It counts as in vivo. The note with it: topical 20 μl of 10 mM at 45 min and 4 h post-TPA; 18 h; relative to vehicle-treated ear. As to the method: The effects of LXR ligands in both acute and chronic inflammatory contexts were evaluated. First, the effects of LXR agonists in a murine model of irritant contact dermatitis (Sheu, M. Y. et al. 2002 J Invest Dermatol 118:94-101) were studied. Ears of C57B1/6 mice (n=5 per group) were treated topically with 12-O-tetradecanoylphorbol-13-acetate (TPA) (left ear) or with vehicle (right ear). […] Thickness and weight of 6-mm punch biopsies were determined for each group after 18 h TPA treatment and are presented relative to vehicle-treated ear. […] Analysis of hematoxylin and eosin (H&E) stained sections of the TPA-treated ears confirmed a reduction in edema and inflammatory infiltrate by LXR agonist. Thus, two structurally unrelated LXR agonists have anti-inflammatory activity in a model of cutaneous inflammation.
Animals. Mice on a mixed background (C57B1/6 and 129v) and Apoe^−/− mice on a C57B1/6 background were maintained on standard chow. […] Irritant contact dermatitis was induced as described (Sheu, M. Y. et al. 2002 J Invest Dermatol 118:94-101). Briefly, 10 μl of 0.03% 12-O-tetradecanoylphorbol-13-acetate (TPA) in acetone was applied to the left ears of male mice. The right ears were treated with vehicle alone. […] After 18 h of TPA treatment, the thickness and weight of 6-mm punch biopsies were determined. Statistical analysis was performed using Student's t-test. Experiments were conducted in accordance of the Animal Research Committee of the University of California, Los Angeles.

Experiment [4] concerns Thioglycolate-elicited murine peritoneal macrophages. As to the kind of experiment: IL-1β- or TNFα-induced inflammatory gene expression in macrophages. The class given is cell-based. The note with it: pretreated 18 h; IL-1β or TNFα (50 ng/ml); real-time quantitative PCR. As to the method: Next, the influence of LXR agonists on inflammatory gene expression induced by IL-1β and TNFα, which have been implicated in the pathogenesis of atherosclerosis, was tested. […] Gene expression was detected by real-time quantitative PCR assays. […] Total RNA was isolated from individual aortas and gene expression was measured by real-time quantitative PCR. P<0.05 for MMP-9 (*) and P<0.01 (**) for ABCA1. […] Thus, LXR agonist reduces expression of an established inflammatory mediator in the vessel wall. Cell culture and transfections. Thioglycolate-elicited peritoneal macrophages were cultured in RPMI containing 10% fetal bovine serum (FBS). RAW 264.7 cells were cultured in DMEM containing 10% FBS. For ligand treatments, cells were in cultured medium supplemented with 5% lipoprotein-deficient serum (LPDS) and ligands for 18 h before stimulation. Bacterial infection in vitro was performed as described (Chen, L. M. et al. 1996 Mol Microbiol 21:1101-1115). Transient transfections of RAW 264.7 cells were performed in triplicate in 48-well plates using Superfect reagent (Life Technologies). After transfection, cells were incubated in medium containing 10% LPDS and the indicated ligands for 18 h before stimulation with LPS for an additional 18 h. Luciferase activity was normalized to β-galactosidase activity. NO production was determined spectrophotometrically (Castrillo, A. et al. 2000 Mol Cell Biol 20:1692-1698). RNA and protein analysis. Total RNA was extracted using Trizol reagent (Life Technologies, Inc.). Northern blot analysis was carried out as described using radiolabeled cDNA probes (Tontonoz, P. et al. 1998 Cell 93:241-252). Real-time quantitative PCR (TaqMan) analysis was performed using an Applied Biosystems 7700 sequence detector. Two-step real-time PCR was performed as described (Joseph, S. B. et al. 2002 J Biol Chem 277:11019-11025). The primers and probes used are as follows: […]

Experiment [5] relates to human smooth muscle cells. As to the kind of experiment: TNF-induced gene expression in human smooth muscle cells. The note with it: TNF 6 hours; real time qPCR. It counts as cell-based. As to the method: (§1) Activation of LXR by synthetic ligands inhibits inflammatory gene expression in multiple human cell types (FIG. 7A-C). TNFα plays a role in the induction of inflammatory mediators in during inflammation. Cells were treated for 6 hours with TNF as indicated and gene expression was measured by real time qPCR.

Experiment [6] has as its system human aortic endothelial cells. In words: TNF-induced gene expression in human aortic endothelial cells. It counts as cell-based. As to conditions: TNF 6 hours; real time qPCR. The method, then: as §1
On the technique in general: Quantitative PCR measures a nucleic acid by following its amplification.

The subject of experiment [7] is human peripheral blood mononuclear cells. As to the kind of experiment: TNF-induced gene expression in human peripheral blood mononuclear cells. The note with it: TNF 6 hours; real time qPCR. The class given is cell-based. The method, then: as §1

As for `Cc1cc(SCc2sc(-c3ccc(C(F)(F)F)cc3)nc2C)ccc1OCC(=O)O` [GW1516], the “iNOS mRNA” value in experiment [1] and in experiment [2] was “minimal effects” each time.
For `O=S(=O)(c1ccccc1)N(CC(F)(F)F)c1ccc(C(O)(C(F)(F)F)C(F)(F)F)cc1` [T1317, N-(2,2,2-trifluoro-ethyl)-N-[4-(2,2,2-trifluoro-1-hydroxy-1-trifluoromethyl-ethyl)-phenyl]-benzenesulfonamide], in experiment [2] (increasing doses, real time qPCR, FIG. 8B), the “activation of ABCA1 gene expression, T1317 compared with GW3965” value is given as “more effective activator”. For the same compound, in experiment [3], the “receptor-independent induction of IL-6” value is on record as “modest receptor-independent induction” and the “receptor-independent induction of MCP-1” value is “modest receptor-independent induction”. Further, in the experiment on C57B1/6 mice, the ear thickness result was “reduced” and the “ear weight (6-mm punch biopsies)” value was “reduced”. In experiment [4], the “induction of IL-6 expression” value is reported as “inhibit” and the “induction of iNOS expression” value was “inhibit”. Moreover, the TNF-induced gene expression result in experiment [5] was “inhibited”. Moreover, the TNF-induced gene expression result in experiment [6] is “inhibited”. Also, in experiment [7], the TNF-induced gene expression entry was “inhibited”.
With GW7647, the “iNOS mRNA” value in experiment [1] and in experiment [2] was “minimal effects” throughout.

The record behind these values is patent publication US20040259948A1, “Reciprocal regulation of inflammation and lipid metabolism by liver X receptors” (priority 2003, published 2004).
